The record followed here is US5034543A, “Ascorbic acid derivative and use as antioxidants” (Nippon Hypox Laboratories Incorporated, priority 1989, dated 1991).

The nature of one experiment: Antioxidant action examined by using stable radicals: reduction activity of DPPH (Blois method, absorbance at 517 nm). Particulars: 0.1 mM DPPH in ethanol, after 20 minutes, read-out: 50% radical eliminating concentration. The procedure: (Antioxidant action examined by using stable radicals)
Reduction activity of α,α-diphenyl-β-picrylhydrazyl (DPPH) which was a stable free radical was examined according to the M. S. Blois method (Nature, vol. 181, page. 1199, 1958) and used as an index to antioxidant action. Thus, specimens were added to 3 ml of a 0.1 mM DPPH solution in ethanol, and absorbance at a wavelength of 517 nm was measured using a spectrophotometer after 20 minutes. The difference in absorbance from the solvent control [0.5% or less of dimethylformamide (DMF)] was taken as the reduction activity.
For orientation: DPPH is a stable violet radical that fades when it is reduced.
As to `CCCCCCCCCCCCCCCCCCOC1=C(O)C(=O)O[C@@H]1[C@@H]1COC(C)(C)O1` [Compound 001], the IC50 was 30 µM.

`CCCCCCCCCCCCOC1=C(O)C(=O)O[C@@H]1[C@@H]1COC(C)(C)O1` [Compound 002]: the IC50 is 29 µM.

Turning to `CCCCCCCCOC1=C(O)C(=O)O[C@@H]1[C@@H]1COC(C)(C)O1` [Compound 003], the IC50 turned out to be 27 µM.

With `CCCCOC1=C(O)C(=O)O[C@@H]1[C@@H]1COC(C)(C)O1` [Compound 004], the IC50 came to 25 µM.

Consider `CCC(C)OC1=C(O)C(=O)O[C@@H]1[C@@H]1COC(C)(C)O1` (stereo partly shown) [Compound 005], for which the IC50 amounted to 32 µM.

`CC1(C)OC[C@@H]([C@H]2OC(=O)C(O)=C2OCc2ccccc2)O1` [Compound 006]: the IC50 amounted to 22 µM.

For the molecule `CC1(C)OC[C@@H]([C@H]2OC(=O)C(O)=C2OCc2cccnc2)O1` [Compound 007], the IC50 worked out at 23 µM.

Regarding `CCOC(=O)CCCCOC1=C(O)C(=O)O[C@@H]1[C@@H]1COC(C)(C)O1` [Compound 008], the IC50 was 16 µM.

For the molecule `CC1(C)OC[C@@H]([C@H]2OC(=O)C(O)=C2OCCCCCCCCCCCCCCCCC(=O)O)O1` [Compound 009], the IC50 was 25 µM.

`CCOC(=O)CCCOC1=C(O)C(=O)O[C@@H]1[C@@H]1COC(C)(C)O1` [Compound 010]: the IC50 worked out at 16 µM.

As for `C=CCOC1=C(O)C(=O)O[C@@H]1[C@@H]1COC(C)(C)O1` [Compound 011], the IC50 is 33 µM.

For `CC1(C)OC[C@@H]([C@H]2OC(=O)C(O)=C2OCCO)O1` [Compound 012], the IC50 stood at 35 µM.

For `COCOC1=C(O)C(=O)O[C@@H]1[C@@H]1COC(C)(C)O1` [Compound 013], the IC50 amounted to 17 µM.

As to `CCOC(=O)C(C)OC1=C(O)C(=O)O[C@@H]1[C@@H]1COC(C)(C)O1` (stereo partly shown) [Compound 014], the IC50 is 26 µM.

For the molecule `CC1(C)OC[C@@H]([C@H]2OC(=O)C(O)=C2OCC(=O)O)O1` [Compound 015], the IC50 was 31 µM.

As to `CC1(C)OC[C@@H]([C@H]2OC(=O)C(O)=C2OCC(=O)OCc2ccccc2)O1` [Compound 016], the IC50 amounted to 25 µM.

In the case of `CC(C)(C)OC(=O)COC1=C(O)C(=O)O[C@@H]1[C@@H]1COC(C)(C)O1` [Compound 017], the IC50 came out at 25 µM.

For the molecule `CCCCCCCCCCOC(=O)COC1=C(O)C(=O)O[C@@H]1[C@@H]1COC(C)(C)O1` [Compound 018], the IC50 was determined as 28 µM.

As to `CCCCOC(=O)COC1=C(O)C(=O)O[C@@H]1[C@@H]1COC(C)(C)O1` [Compound 019], the IC50 is 25 µM.

As to `CCOC(=O)COC1=C(O)C(=O)O[C@@H]1[C@@H]1COC(C)(C)O1` [Compound 020], the IC50 turned out to be 23 µM.

In the case of `CC(=O)COC1=C(O)C(=O)O[C@@H]1[C@@H]1COC(C)(C)O1` [Compound 021, L-5,6-O-isopropylidene-3-O-methylcarbomethylascorbic acid], the IC50 is 17 µM.

As for `CCC(=O)COC1=C(O)C(=O)O[C@@H]1[C@@H]1COC(C)(C)O1` [Compound 022, L-5,6-O-isopropylidene-3-O-(3-butanone) ascorbic acid], the IC50 turned out to be 20 µM.

For the molecule `CC1(C)OC[C@@H]([C@H]2OC(=O)C(O)=C2OCC(=O)c2ccccc2)O1` [Compound 023], the IC50 was determined as 24 µM.

In the case of `CC1(C)OC[C@@H]([C@H]2OC(=O)C(O)=C2OCC#N)O1` [Compound 024], the IC50 worked out at 31 µM.

Consider `CCOC1=C(O)C(=O)O[C@@H]1[C@@H]1COC(C)(C)O1` [Compound 025], for which the IC50 amounted to 22 µM.

The next experiment in a line: Effects on formazan formation in the xanthine-xanthine oxidase-Nitrotetrazolium Blue system. Particulars: 0.5 mM; pH 7.8, 30° C., 10 minutes. The class given is biochemical. The protocol:
(Effects on formazan formation in the xanthine-xanthine oxidase-Nitrotetrazolium Blue system)
Specimens were added to a 0.05M phosphate buffer solution (pH 7.8) containing xanthine, EDTA 2Na and Nitrotetrazolium Blue (NTB) so as to provide the respective final concentrations of 5×10^-5 M, 1×10^-4 M and 5×10^-4 M and warmed at 30° C. for 3 minutes. Xanthine oxidase (manufactured by Sigma Corp.) was added, and the resulting specimens were warmed at 30° C. for 10 minutes to colorimetrically determine formazan formed by superoxide anion radicals. The inhibition ratio of formazan formation was determined from the results at concentrations of 0.5 mM and 4 mM of each specimen.
For the molecule `CC(=O)COC1=C(O)C(=O)O[C@@H]1[C@@H]1COC(C)(C)O1` [Compound 021, L-5,6-O-isopropylidene-3-O-methylcarbomethylascorbic acid], the “Inhibition ratio of formazan formation” value turned out to be 9.2%.

Take `CCC(=O)COC1=C(O)C(=O)O[C@@H]1[C@@H]1COC(C)(C)O1` [Compound 022, L-5,6-O-isopropylidene-3-O-(3-butanone) ascorbic acid]: the “Inhibition ratio of formazan formation” value is 22.6%.

The same experiment, now with this note: 4 mM; pH 7.8, 30° C., 10 minutes.
Take `CC(=O)COC1=C(O)C(=O)O[C@@H]1[C@@H]1COC(C)(C)O1` [Compound 021, L-5,6-O-isopropylidene-3-O-methylcarbomethylascorbic acid]: the “Inhibition ratio of formazan formation” value came to 47.4%.

As to `CCC(=O)COC1=C(O)C(=O)O[C@@H]1[C@@H]1COC(C)(C)O1` [Compound 022, L-5,6-O-isopropylidene-3-O-(3-butanone) ascorbic acid], the “Inhibition ratio of formazan formation” value stood at 26.7%.

The experiment is the same for the next values; noted with them: xanthine-xanthine oxidase-NTB system.
For `CC(=O)COC1=C(O)C(=O)O[C@@H]1[C@@H]1COC(C)(C)O1` [Compound 021, L-5,6-O-isopropylidene-3-O-methylcarbomethylascorbic acid], the “inhibition of formazan formation (result in words)” value is given as “remarkably inhibited formazan formation”.

Regarding `CCC(=O)COC1=C(O)C(=O)O[C@@H]1[C@@H]1COC(C)(C)O1` [Compound 022, L-5,6-O-isopropylidene-3-O-(3-butanone) ascorbic acid], the “inhibition of formazan formation (result in words)” value is recorded as “remarkably inhibited formazan formation”.
